Laboratory results as given in patent US20240024324A1, “KINASE INHIBITOR COMBINATIONS FOR CANCER TREATMENT” (Merck Patent GmbH, priority 2020, published 2024).

Legend:
GSC272 [1] = assay: GSC lines: sensitivity in vitro (IC50); type: cell-based; settings: GSC272 line in vitro
Procedure: FIG. 1: In vitro analyses in GSC lines. (A) Western blot analysis of protein expression; (B) IC50 of […]; (C) IC50 of pimasertib; and (D) apoptotic GSC11, GSC7-2, and GSC17 cells after treatment with […], pimasertib, or […]+pimasertib combination. Single agents were tested at their IC50; half the IC50 of each compound was used for the combination. In vitro IC50 data were used to select GSC lines for in vivo studies; […] All GSC lines expressed Akt. Relatively high pAkt expression in GSC17, GSC7-2, GSC231, GSC11, GSC20, GSC6-27, and GSC8-11 lines compared with GSC272 and GSC267 (FIG. 1A). […] (FIG. 1B).

GSC11 [2] = assay: Induction of apoptosis in GSC lines in vitro; type: cell-based
Procedure: (§1) FIG. 1: In vitro analyses in GSC lines. (A) Western blot analysis of protein expression; (B) IC50 of M2698; (C) IC50 of pimasertib; and (D) apoptotic GSC11, GSC7-2, and GSC17 cells after treatment with M2698, pimasertib, or M2698+pimasertib combination. […]
(§2) Induction of apoptosis by M2698, pimasertib, and the combination was measured in three of five GSC lines that were sensitive to M2698 in vitro.

GSC7-2 [3] = assay: Induction of apoptosis in GSC lines in vitro; type: cell-based
Procedure: as §1, §2

GSC17 [4] = assay: Induction of apoptosis in GSC lines in vitro; type: cell-based
Procedure: as §1, §2

[5] = tested on: human cholangiocarcinoma cancer PDX; assay: PDX models of cholangiocarcinoma; type: in vivo, mice; settings: 20 mg/kg each agent QD PO
Text: The objective of this experiment was to evaluate the antitumor activity of M2698 alone and in combination with Pimasertib in a panel of 13 Patient-Derived Xenograft models representing human cholangiocarcinoma cancer derived from Chinese patients in immune-deficient mice.
Vehicle: 0.5% Methocel/0.25% Tween20 in Milli-Q Water. Tumors from three untreated mice were collected as satellite samples when reached a tumor volume between 300-500 mm3.

Colorectal Cancer PDX = assay: 75 PDX models of colorectal cancer; type: in vivo; settings: CRC PDX; M2698 25 mg/kg po qd, Pimasertib 20 mg/kg po qd, Cetuximab 20 mg/kg ip q2w
Text: Of the 75 models, 25 were wild type, 25 KRas mutant, and 25 BRaf mutant.

[6] = in vivo; cited from earlier work
GSC11 [7] = assay: Orthotopic GSC xenograft model; type: in vivo, mice
Procedure: (§3) The in vivo effects of M2698 and pimasertib, alone and in combination, were assessed in the GSC models after orthotopic implantation into mice. Treatment duration and time of euthanasia post-implantation was 5-10 weeks. Endpoints were expression of PD markers pS6 and pERK, proliferation marker Ki67, apoptosis as measured by TUNEL, tumor volume and survival.

GSC20 [8] = assay: Orthotopic GSC xenograft model; type: in vivo, mice
Procedure: as §3

GSC6-27 [9] = assay: Orthotopic GSC xenograft model; type: in vivo, mice
Procedure: as §3

GSC7-2 [10] = assay: Orthotopic GSC xenograft model; type: in vivo, mice
Procedure: as §3

GSC17 [11] = assay: Orthotopic GSC xenograft model; type: in vivo, mice
Procedure: as §3

GSC231 [12] = assay: Orthotopic GSC xenograft model; type: in vivo, mice
Procedure: as §3

GSC272 [13] = assay: Orthotopic GSC xenograft model; type: in vivo, mice
Procedure: as §3

[14] = tested on: Her2+/HR− Breast Cancer PDX; assay: PDX models of Her2+/HR- breast cancer; type: in vivo
[15] = tested on: Non-Small Lung Cancer (NSCLC) Brain Metastases PDX; assay: PDX models of NSCLC brain metastases; type: in vivo
GSC11 [16] = assay: GSC lines: sensitivity in vitro (IC50); type: cell-based
Procedure: (§4) FIG. 1: In vitro analyses in GSC lines. (A) Western blot analysis of protein expression; (B) IC50 of M2698; (C) IC50 of pimasertib; and (D) apoptotic GSC11, GSC7-2, and GSC17 cells after treatment with M2698, pimasertib, or M2698+pimasertib combination. Single agents were tested at their IC50; half the IC50 of each compound was used for the combination.
(§5) All GSC lines expressed Akt. Relatively high pAkt expression in GSC17, GSC7-2, GSC231, GSC11, GSC20, GSC6-27, and GSC8-11 lines compared with GSC272 and GSC267 (FIG. 1A).

GSC20 [17] = assay: GSC lines: sensitivity in vitro (IC50); type: cell-based
Procedure: as §4, §5

GSC6-27 [18] = assay: GSC lines: sensitivity in vitro (IC50); type: cell-based; settings: GSC6-27 line in vitro
Procedure: as §4, §5

GSC7-2 [19] = assay: GSC lines: sensitivity in vitro (IC50); type: cell-based
Procedure: as §4, §5

GSC17 [20] = assay: GSC lines: sensitivity in vitro (IC50); type: cell-based
Procedure: as §4, §5

GSC231 [21] = assay: GSC lines: sensitivity in vitro (IC50); type: cell-based; settings: GSC231 line in vitro
Procedure: as §4, §5

O=C(NCC(O)CO)c1ccncc1Nc1ccc(I)cc1F (stereo not drawn) [pimasertib, N-(2,3-dihydroxy-propyl)-3-(2-fluoro-4-iodo-phenylamino)-isonicotinamide, reference compound]
IC50 (GSC272 [1]): > 2000 nM | apoptotic percentage (GSC11 [2]; GSC11, monotherapy at 2×IC50): 62% | apoptotic percentage (GSC11 [2]; GSC11, monotherapy at the IC50): 56% | apoptotic percentage (GSC7-2 [3]; GSC7-2, monotherapy at 2×IC50): 17% | apoptotic percentage (GSC7-2 [3]; GSC7-2, monotherapy at the IC50): 13% | apoptotic percentage (GSC17 [4]; GSC17, monotherapy at 2×IC50): 12% | apoptotic percentage (GSC17 [4]; GSC17, monotherapy at the IC50): 11% | tumor stasis, number of tumor samples [5]: 1/12 | tumor stasis, share of tumor samples [5]: 8% | tumor control rate (TCR) (Colorectal Cancer PDX): 32% | tumor control rate (TCR), models controlled/models (Colorectal Cancer PDX): 24/74 | blood-brain barrier penetration [6]: brain-penetrant | pERK expression in orthotopic tumor (GSC11 [7]; GSC11, PD marker): significantly reduced pERK | median survival (GSC11 [7]; GSC11 orthotopic, vs vehicle): no significant effects on survival | pERK expression in orthotopic tumor (GSC20 [8]; GSC20, PD marker): significant effects of pimasertib treatment on pERK protein were not seen | median survival (GSC20 [8]; GSC20 orthotopic, vs vehicle): no significant effects on survival | tumor volume / tumor growth (GSC20 [8]; GSC20 orthotopic, vs vehicle): had not responded | pERK expression in orthotopic tumor (GSC6-27 [9]; GSC6-27, PD marker): significantly reduced pERK | median survival (GSC6-27 [9]; GSC6-27 orthotopic, vs vehicle): no significant effects on survival | tumor volume / tumor growth (GSC6-27 [9]; GSC6-27 orthotopic, vs vehicle): significant tumor growth inhibition | pERK expression in orthotopic tumor (GSC7-2 [10]; GSC7-2, PD marker): significantly reduced pERK | median survival (GSC7-2 [10]; GSC7-2 orthotopic, vs vehicle): no significant effects on survival | tumor volume / tumor growth (GSC7-2 [10]; GSC7-2 orthotopic, vs vehicle): significant tumor growth inhibition | number of apoptotic cells/field (GSC7-2 [10]; GSC7-2 xenografts, after 10 weeks): 65.00±60.80 cells/field | apoptosis in xenografts vs control (GSC7-2 [10]; GSC7-2 xenografts, at 7.5 weeks): Neither M2698, pimasertib, nor combination treatment significantly affected apoptosis | pERK expression in orthotopic tumor (GSC17 [11]; GSC17, PD marker): significantly reduced pERK | median survival (GSC17 [11]; GSC17 orthotopic, vs vehicle): no significant effects on survival | tumor volume / tumor growth (GSC17 [11]; GSC17 orthotopic, vs vehicle): not affected | proliferation (Ki67 by immunohistochemistry) (GSC17 [11]; GSC17 tumor sections, compared to vehicle): significantly reduced proliferation | pERK expression in orthotopic tumor (GSC231 [12]; GSC231, PD marker): significantly reduced pERK | pS6 expression in orthotopic tumor (GSC231 [12]; GSC231, PD marker): significantly reduced pS6 | cross-pathway reduction of pS6, trend over time (GSC231 [12]; GSC231, from 7.5-10 weeks): diminished | median survival (GSC231 [12]; GSC231 orthotopic, vs vehicle): no significant effects on survival | tumor volume / tumor growth (GSC231 [12]; GSC231 orthotopic, vs vehicle): trend towards a significant response | pERK expression in orthotopic tumor (GSC272 [13]; GSC272, PD marker): significantly reduced pERK | pS6 expression in orthotopic tumor (GSC272 [13]; GSC272, PD marker): significantly reduced pS6 | cross-pathway reduction of pS6, trend over time (GSC272 [13]; GSC272, from 7.5-10 weeks): diminished | median survival (GSC272 [13]; GSC272 orthotopic, vs vehicle): no significant effects on survival | tumor volume / tumor growth (GSC272 [13]; GSC272 orthotopic, vs vehicle): significant tumor growth inhibition | tumor volume over the duration of the experiment [14]: stasis of the tumor volume | tumor control rate (TCR) [15]: 16% | sensitivity in vitro (GSC11 [16]; GSC11 line): most sensitive | IC50 (GSC11 [16]; GSC11 line in vitro): < 2000 nM | sensitivity in vitro (GSC20 [17]; GSC20 line): insensitivity | IC50 (GSC20 [17]; GSC20 line in vitro): > 2000 nM | IC50 (GSC6-27 [18]): > 2000 nM | sensitivity in vitro (GSC7-2 [19]; GSC7-2 line): not sensitive | IC50 (GSC7-2 [19]; GSC7-2 line in vitro): > 2000 nM | sensitivity in vitro (GSC17 [20]; GSC17 line): moderately sensitive | IC50 (GSC17 [20]; GSC17 line in vitro): < 2000 nM | IC50 (GSC231 [21]): < 2000 nM
